Laboratory results taken from patent publication US8450317B2, “CXCR3 receptor antagonists” (Boehringer Ingelheim International GmbH, priority 2009, dated 2013).

molecular target: CXCR3 (Macaca fascicularis, UniProt A0A2K5UV19); assay: functional cellular assay measuring calcium flux in CXCR3 transfected cells (block of CXCR3/IP-10 interaction); type: cell-based, Cyno; conditions: IP-10 induced intracellular calcium flux; Cyno-CHO cells stably expressing recombinant CXCR3 and G-alpha-16; IP-10 at EC80; read-out: IC50
Method in brief: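 Cyno-CHO cells stably expressing CXCR3 and G-alpha-16, loaded with Ca-4 dye in HBSS/10 mM HEPES pH 7.4 with 2 mM probenecid for 1 h at 37° C. Compound (final 10 microM) preincubated 15 min at room temperature, then IP-10 at EC80 added; calcium flux read at 480/540 nm.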

Sequence of CXCR3 (A0A2K5UV19 entry or part of it): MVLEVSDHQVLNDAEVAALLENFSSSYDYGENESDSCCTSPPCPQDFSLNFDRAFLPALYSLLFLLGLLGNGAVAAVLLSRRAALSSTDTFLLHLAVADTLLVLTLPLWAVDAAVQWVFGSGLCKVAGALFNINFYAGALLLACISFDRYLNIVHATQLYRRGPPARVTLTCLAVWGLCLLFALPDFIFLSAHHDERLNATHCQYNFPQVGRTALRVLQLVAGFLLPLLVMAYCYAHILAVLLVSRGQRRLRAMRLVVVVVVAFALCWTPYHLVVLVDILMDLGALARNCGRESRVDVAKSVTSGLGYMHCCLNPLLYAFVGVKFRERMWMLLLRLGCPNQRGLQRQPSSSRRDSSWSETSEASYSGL

SMILES | IC50 [nM]
CC1CN(c2ccccc2-c2cnc(N3CCC(O)CC3)nc2)CCN1C(=O)Cn1ccc2ccncc21 (centres unmarked) [1-(4-{2-[2-(4-hydroxypiperidin-1-yl)pyrimidin-5-yl]phenyl}-2-methylpiperazin-1-yl)-2-(1H-pyrrolo[2,3-c]pyridin-1-yl)ethanone] | 8
O=C(Cn1ccc2cccnc21)N1CCN(c2ccccc2-c2ccnc(N3CCOCC3)c2)CC1 [1-{4-[2-(2-Morpholin-4-yl-pyridin-4-yl)-phenyl]-piperazin-1-yl}-2-pyrrolo[2,3-b]pyridin-1-yl-ethanone] | 16
Cc1cc(C)n(CC(=O)N2CCN(c3ccccc3-c3cnc(N4CCC(S(C)(=O)=O)CC4)nc3)CC2C)n1 (centres unmarked) [2-(3,5-dimethyl-1H-pyrazol-1-yl)-1-[2-methyl-4-(2-{2-[4-(methylsulfonyl)piperidin-1-yl]pyrimidin-5-yl}phenyl)piperazin-1-yl]ethanone] | 9
CS(=O)(=O)c1ncc(-c2cc(F)ccc2N2CCN(C(=O)Cn3ccc4cccnc43)CC2)cn1 [1-(4-{4-fluoro-2-[2-(methylsulfonyl)pyrimidin-5-yl]phenyl}piperazin-1-yl)-2-(1H-pyrrolo[2,3-b]pyridin-1-yl)ethanone] | 67
CC1CN(c2ccc(F)cc2-c2cnc(S(C)(=O)=O)nc2)CCN1C(=O)Cn1c(=O)[nH]c2ccccc21 (centres unmarked) [1-[2-(4-{4-fluoro-2-[2-(methylsulfonyl)pyrimidin-5-yl]phenyl}-2-methylpiperazin-1-yl)-2-oxoethyl]-1,3-dihydro-2H-benzimidazol-2-one] | 60
CC1CN(c2ccccc2-c2cnc(N3CCC(O)CC3)nc2)CCN1C(=O)CN1CCCCC1=O (centres unmarked) [1-[2-(4-{2-[2-(4-hydroxypiperidin-1-yl)pyrimidin-5-yl]phenyl}-2-methylpiperazin-1-yl)-2-oxoethyl]piperidin-2-one] | 19
Cc1cc(C)n(CC(=O)N2CCN(c3ccccc3-c3ccc4ccn(C)c4c3)CC2)n1 [2-(3,5-Dimethyl-pyrazol-1-yl)-1-{4-[2-(1-methyl-1H-indol-6-yl)-phenyl]-piperazin-1-yl}-ethanone] | 19
CC1CN(c2ccc(F)cc2-c2cnc(N3CCC(S(C)(=O)=O)CC3)nc2)CCN1C(=O)Cn1c(=O)[nH]c2ccccc21 (centres unmarked) [1-{2-[4-(4-fluoro-2-{2-[4-(methylsulfonyl)piperidin-1-yl]pyrimidin-5-yl}phenyl)-2-methylpiperazin-1-yl]-2-oxoethyl}-1,3-dihydro-2H-benzimidazol-2-one] | 9
COc1ncc(-c2cc(Cl)ccc2N2CCN(C(=O)Cn3ccc4cccnc43)CC2)cn1 [1-{4-[4-Chloro-2-(2-methoxy-pyrimidin-5-yl)-phenyl]-piperazin-1-yl}-2-pyrrolo[2,3-b]pyridin-1-yl-ethanone] | 7
CS(=O)(=O)c1ncc(-c2cc(Cl)ccc2N2CCN(C(=O)Cn3ccc4cccnc43)CC2)cn1 [1-{4-[4-Chloro-2-(2-methanesulfonyl-pyrimidin-5-yl)-phenyl]-piperazin-1-yl}-2-pyrrolo[2,3-b]pyridin-1-yl-ethanone] | 24
COc1ncc(-c2cc(F)ccc2N2CCN(C(=O)Cn3c(=O)[nH]c4ccccc43)CC2)cn1 [1-(2-{4-[4-fluoro-2-(2-methoxypyrimidin-5-yl)phenyl]piperazin-1-yl}-2-oxoethyl)-1,3-dihydro-2H-benzimidazol-2-one] | 13
Cc1cc(C)n(CC(=O)N2CCN(c3ccc(F)cc3-c3cnc(S(C)(=O)=O)nc3)CC2)n1 [2-(3,5-dimethyl-1H-pyrazol-1-yl)-1-(4-{4-fluoro-2-[2-(methylsulfonyl)pyrimidin-5-yl]phenyl}piperazin-1-yl)ethanone] | 278
CC1CN(c2ccc(C(F)(F)F)cc2-c2cnc(N3CCC(O)CC3)nc2)CCN1C(=O)Cn1ccc2ccncc21 (centres unmarked) [1-(4-{2-[2-(4-hydroxypiperidin-1-yl)pyrimidin-5-yl]-4-(trifluoromethyl)phenyl}-2-methylpiperazin-1-yl)-2-(1H-pyrrolo[2,3-c]pyridin-1-yl)ethanone] | 7
C[C@@H]1CN(c2ncc(-c3ccccc3N3CCN(C(=O)Cn4ccc5cccnc54)CC3)cn2)C[C@@H](C)O1 [1-(4-{2-[2-((2R,6R)-2,6-Dimethyl-morpholin-4-yl)-pyrimidin-5-yl]-phenyl}-piperazin-1-yl)-2-pyrrolo[2,3-b]pyridin-1-yl-ethanone] | 7
COc1cc(NC(=O)c2cc(F)ccc2N2CCN(C(=O)Cn3ccc4cccnc43)[C@@H](C)C2)ccn1 [5-fluoro-N-(2-methoxypyridin-4-yl)-2-[(3S)-3-methyl-4-(1H-pyrrolo[2,3-b]pyridin-1-ylacetyl)piperazin-1-yl]benzamide] | 18
Cc1cc(C)n(CC(=O)N2CCN(c3ccc(C(F)(F)F)cc3-c3cnc(S(C)(=O)=O)nc3)CC2C)n1 (centres unmarked) [2-(3,5-dimethyl-1H-pyrazol-1-yl)-1-(2-methyl-4-{2-[2-(methylsulfonyl)pyrimidin-5-yl]-4-(trifluoromethyl)phenyl}piperazin-1-yl)ethanone] | 56

SMILES | IC50 [nM]
Cc1cc(C)n(CC(=O)N2CCN(c3ccc(C(F)(F)F)cc3-c3cnc(S(C)(=O)=O)nc3)CC2)n1 [2-(3,5-Dimethyl-pyrazol-1-yl)-1-{4-[2-(2-methanesulfonyl-pyrimidin-5-yl)-4-trifluoromethyl-phenyl]-piperazin-1-yl}-ethanone] | 54
Cc1cc(C)n(CC(=O)N2CCN(c3ccccc3-c3cnc(N4CCC(F)(F)CC4)nc3)CC2)n1 [1-(4-{2-[2-(4,4-Difluoro-piperidin-1-yl)-pyrimidin-5-yl]-phenyl}-piperazin-1-yl)-2-(3,5-dimethyl-pyrazol-1-yl)-ethanone] | 22
CC(C)C(=O)N(C)CC(=O)N1CCN(c2ccc(F)cc2C(=O)Nc2nc3c(s2)CN(C)CC3)C[C@H]1C [5-fluoro-2-{(3R)-3-methyl-4-[N-methyl-N-(2-methylpropanoyl)glycyl]piperazin-1-yl}-N-(5-methyl-4,5,6,7-tetrahydro[1,3]thiazolo[5,4-c]pyridin-2-yl)benzamide] | 19
C[C@H]1CN(c2ccc(F)cc2C(=O)Nc2nc3c(s2)CN(C)CC3)CCN1C(=O)Cn1ccc2cccnc21 [5-fluoro-2-[(3S)-3-methyl-4-(1H-pyrrolo[2,3-b]pyridin-1-ylacetyl)piperazin-1-yl]-N-(5-methyl-4,5,6,7-tetrahydro[1,3]thiazolo[5,4-c]pyridin-2-yl)benzamide] | 17
COc1ncc(-c2cc(C(F)(F)F)ccc2N2CCN(C(=O)Cn3ccc4cccnc43)CC2)cn1 [1-{4-[2-(2-Methoxy-pyrimidin-5-yl)-4-trifluoromethyl-phenyl]-piperazin-1-yl}-2-pyrrolo[2,3-b]pyridin-1-yl-ethanone] | 8
C[C@H]1CN(c2ccc(F)cc2C(=O)Nc2nc3c(s2)CN(C)CC3)CCN1C(=O)CN1Cc2ccccc2C1=O [5-fluoro-2-{(3S)-3-methyl-4-[(1-oxo-1,3-dihydro-2H-isoindol-2-yl)acetyl]piperazin-1-yl}-N-(5-methyl-4,5,6,7-tetrahydro[1,3]thiazolo[5,4-c]pyridin-2-yl)benzamide] | 15
Cc1cc(C)n(CC(=O)N2CCN(c3ccccc3-c3ccc4cc[nH]c4c3)CC2)n1 [2-(3,5-Dimethyl-pyrazol-1-yl)-1-{4-[2-(1H-indol-6-yl)-phenyl]-piperazin-1-yl}-ethanone] | 81
CC1CN(c2ccccc2-c2cnc(N3CCC(S(C)(=O)=O)CC3)nc2)CCN1C(=O)CN1CCCCC1=O (centres unmarked) [1-{2-[2-methyl-4-(2-{2-[4-(methylsulfonyl)piperidin-1-yl]pyrimidin-5-yl}phenyl)piperazin-1-yl]-2-oxoethyl}piperidin-2-one] | 34
CC1CN(C(=O)Cn2ccc3cccnc32)CCN1c1ccccc1-c1cnc(N2CCOCC2)nc1 (centres unmarked) [1-{3-Methyl-4-[2-(2-morpholin-4-yl-pyrimidin-5-yl)-phenyl]-piperazin-1-yl}-2-pyrrolo[2,3-b]pyridin-1-yl-ethanone] | 11
COC1(C)CCN(c2ncc(-c3ccccc3N3CCN(C(=O)Cn4nc(C)cc4C)CC3)cn2)CC1 [2-(3,5-Dimethyl-pyrazol-1-yl)-1-(4-{2-[2-(4-methoxy-4-methyl-piperidin-1-yl)-pyrimidin-5-yl]-phenyl}-piperazin-1-yl)-ethanone] | 33
CSc1ncc(-c2cc(C(F)(F)F)ccc2N2CCN(C(=O)Cn3ccc4cccnc43)CC2)cn1 [1-{4-[2-(2-Methylsulfanyl-pyrimidin-5-yl)-4-trifluoromethyl-phenyl]-piperazin-1-yl}-2-pyrrolo[2,3-b]pyridin-1-yl-ethanone] | 9
CSc1ncc(-c2cc(C(F)(F)F)ccc2N2CCN(C(=O)Cn3nc(C)cc3C)CC2)cn1 [2-(3,5-Dimethyl-pyrazol-1-yl)-1-{4-[2-(2-methylsulfanyl-pyrimidin-5-yl)-4-trifluoromethyl-phenyl]-piperazin-1-yl}-ethanone] | 5
COc1cc(NC(=O)c2cc(F)ccc2N2CCN(C(=O)CN3Cc4ccccc4C3=O)[C@H](C)C2)ccn1 [5-fluoro-N-(2-methoxypyridin-4-yl)-2-{(3R)-3-methyl-4-[(1-oxo-1,3-dihydro-2H-isoindol-2-yl)acetyl]piperazin-1-yl}benzamide] | 7
COc1ncc(-c2ccccc2N2CCN(C(=O)CN3Cc4ccccc4C3=O)CC2)cn1 [2-(2-{4-[2-(2-Methoxy-pyrimidin-5-yl)-phenyl]-piperazin-1-yl}-2-oxo-ethyl)-2,3-dihydro-isoindol-1-one] | 17
COc1ncc(-c2cc(F)ccc2N2CCN(C(=O)CN3CCCCC3=O)CC2)cn1 [1-(2-{4-[4-fluoro-2-(2-methoxypyrimidin-5-yl)phenyl]piperazin-1-yl}-2-oxoethyl)piperidin-2-one] | 174
COc1cc(NC(=O)c2cc(F)ccc2N2CCN(C(=O)Cn3ccc4ccncc43)[C@H](C)C2)ccn1 [5-fluoro-N-(2-methoxypyridin-4-yl)-2-[(3R)-3-methyl-4-(1H-pyrrolo[2,3-c]pyridin-1-ylacetyl)piperazin-1-yl]benzamide] | 9
